Data reported in US20110136193A1, “METHOD FOR PRODUCING BUTANOL USING EXTRACTIVE FERMENTATION WITH OSMOLYTE ADDITION” (BUTAMAX(TM) ADVANCED BIOFUELS LLC, priority 2009, published 2011).

Key:
[1] = Kp of isobutanol in an oleyl alcohol/aqueous system (general statement); format: physicochemical; conditions: no added osmolyte
Excerpt: Addition of organic extractants like oleyl alcohol into the fermentor during the production stage extracts butanol from the aqueous phase which alleviates its inhibitory effect on the microorganism resulting in higher rate and titer of isobutanol fermentation. Fermentation rate in this two phase system also slows down once the aqueous phase concentration of isobutanol reaches an inhibitory threshold level. In the presence of the extractant (oleyl alcohol) in the fermentor, the aqueous concentration of isobutanol is dictated by the partitioning coefficient (Kp) of isobutanol between the two phases. In the case of an oleyl alcohol/aqueous system, Kp is in the range of 3.5-4.5. A significant increase in isobutanol rate and titer can be achieved if Kp for isobutanol can be increased during fermentation such that the aqueous concentration of isobutanol drops below the inhibitory threshold level.

[2] = Partition coefficient (Kp) of isobutanol between oleyl alcohol extractant and sucrose-supplemented basal fermentation medium; format: physicochemical; conditions: oleyl alcohol / BFM, 30° C.
Experimental: The purpose of this Example was to evaluate the effect of sucrose concentrations in the fermentation medium on the partition coefficient (Kp) of isobutanol when oleyl alcohol was used as the extractant. The basal fermentation medium (BFM) typically used in E. coli fermentations was used as the fermentation medium in this Example.
The following experimental procedure was used to generate the data in Table 3. In these Kp measurement experiments, a specified amount of sucrose was added as an osmolyte to the basal fermentation medium. To 30 mL of the sucrose-supplemented BFM, 10 mL of isobutanol rich oleyl alcohol (OA) extractant containing 168 g/L of isobutanol was added and mixed vigorously for 4 and 8 hours at 30° C. with shaking at 250 rpm in a table top shaker (Innova 4230, New Brunswick scientific, Edison, N.J.) to reach equilibrium between the two phases. The aqueous and organic phases in each flask were separated by decantation. The aqueous phase was centrifuged (2 minutes on 13,000 rpm with an Eppendorf centrifuge model 5415R) to remove residual extractant phase and the supernatant analyzed for glucose and isobutanol by HPLC.
Partition coefficients (Kp) for isobutanol distribution between the organic and aqueous phases were calculated from the known amount of isobutanol added to the flask and the isobutanol concentration data measured in the aqueous phase. The concentration of isobutanol in the extractant phase was determined by mass balance. The partition coefficient was determined as the ratio of isobutanol concentration in the organic and the aqueous phase, i.e., Kp=[Isobutanol]Organic phase/[isobutanol]Aqueous phase. Each data point corresponding to a specified level of sucrose as shown in Table 3 was repeated twice and values for Kp reported as the average of the two flasks.

[3] = Activity of the enzyme expressed from the sadB gene in cell-free extracts; format: biochemical; conditions: cell-free extracts of E. coli Mach1/pTrc99a::sadB; isobutyraldehyde as the standard
Experimental: The sadB coding region was then cloned into the vector pTrc99a (Amann et al., Gene 69: 301-315, 1988). The pCR4Blunt::sadB was digested with EcoRI, releasing the sadB fragment, which was ligated with EcoRI-digested pTrc99a to generate pTrc99a::sadB. This plasmid was transformed into E. coli Mach 1 cells and the resulting transformant was named Mach1/pTrc99a::sadB. The activity of the enzyme expressed from the sadB gene in these cells was determined to be 3.5 mmol/min/mg protein in cell-free extracts when analyzed using isobutyraldehyde as the standard.

Row | Molecule | partitioning coefficient (Kp) of isobutanol between the two phases [1] | Kp ([2]; sucrose added 0 moles/L, total sugars 0.17 moles/L) | Kp ([2]; sucrose added 0.03 moles/L, total sugars 0.20 moles/L) | Kp ([2]; sucrose added 0.09 moles/L, total sugars 0.26 moles/L) | Kp ([2]; sucrose added 0.17 moles/L, total sugars 0.34 moles/L) | Kp ([2]; sucrose added 0.26 moles/L, total sugars 0.43 moles/L) | Kp ([2]; sucrose added 0.33 moles/L, total sugars 0.50 moles/L) | Kp ([2]; sucrose added 0.51 moles/L, total sugars 0.68 moles/L) | Kp ([2]; sucrose added 0.67 moles/L, total sugars 0.84 moles/L) | Kp ([2]; sucrose added 1.00 moles/L, total sugars 1.17 moles/L) | Kp ([2]; sucrose added 1.33 moles/L, total sugars 1.50 moles/L) | Kp ([2]; sucrose added 2.00 moles/L, total sugars 2.17 moles/L) | activity of the enzyme expressed from the sadB gene [3] [mmol/min/mg protein]
1 | CC(C)CO [isobutanol] | 3.5-4.5 | 4.35 | 4.44 | 4.41 | 4.60 | 4.69 | 5.09 | 5.21 | 5.85 | 6.85 | 7.77 | 10.69 | 
2 | sadB: butanol dehydrogenase from Achromobacter xylosoxidans (protein SEQ ID NO: 10), expressed in E. coli Mach 1 cells (protein, Achromobacter xyloxidans) MKALVYHGDHKISLEDKPKPTLQKPTDVVVRVLKTTICGTDLGIYKGKNPEVADGRILGHEGVGVIEEVGESVTQFKKGDKVLISCVTSCGSCDYCKKQLYSHCRDGGWILGYMIDGVQAEYVRIPHADNSLYKIPQTIDDEIAVLLSDILPTGHEIGVQYGNVQPGDAVAIVGAGPVGMSVLLTAQFYSPSTIIVIDMDENRLQLAKELGATHTINSGTENVVEAVHRIAAEGVDVAIEAVGIPATWDICQEIVKPGAHIANVGVHGVKVDFEIQKLWIKNLTITTGLVNTNTTPMLMKVASTDKLPLKKMITHRFELAEIEHAYQVFLNGAKEKAMKIILSNAGAA |  |  |  |  |  |  |  |  |  |  |  |  | 3.5
